Measured values taken from PubChem BioAssay AID330 (DTP/NCI, 2004).
Values joined by “and” are separate entries in the source; they are usually repeats but may differ in a detail not shown here. Identical values can stand only once. Inconclusive results and toxic doses are left out. The calls were made as follows: active = survival T/C of 150% or more; inactive = T/C below 125% in these data. Square brackets hold non-standard residues; d marks the D form. Peptide text beside a SMILES is read from it. * marks the point of attachment. ξ: configuration not given here. Ac5c = NC1(C(=O)O)CCCC1; Cbz = O=C(OCc1ccccc1)*; ξV = CC(C)C(N)C(=O)O

Test system: P388 leukemia ip, CD2F1 mice, survival T/C
Experiment: NCI In Vivo Anticancer Drug Screen. Data for tumor model P388 Leukemia (intraperitoneal) in CD2F1 (CDF1) mice
Conditions: endpoint: median survival time, higher = longer survival
Method in brief: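 Mice carrying the transplanted tumor received test compound or vehicle. Survival was recorded in each group, and the value is the treated-group measurement divided by that of the vehicle-treated control group.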

[1] = dose: 12.5 mg/kg/injection, schedule: Q01DX009 (ip), vehicle: saline with Tween-80
[2] = dose: 25.0 mg/kg/injection, schedule: Q01DX009 (ip), vehicle: saline with Tween-80
[3] = dose: 100.0 mg/kg/injection, schedule: Q01DX009 (ip), vehicle: saline with Tween-80
[4] = dose: 100.0 mg/kg/injection, schedule: Q04DX002 (ip), vehicle: saline with Tween-80
[5] = dose: 200.0 mg/kg/injection, schedule: Q04DX002 (ip), vehicle: saline with Tween-80
[6] = dose: 50.0 mg/kg/injection, schedule: Q01DX005 (ip), vehicle: saline with Tween-80
[7] = dose: 100.0 mg/kg/injection, schedule: Q01DX005 (ip), vehicle: saline with Tween-80
[8] = dose: 200.0 mg/kg/injection, schedule: Q01DX005 (ip), vehicle: saline with Tween-80
[9] = dose: 50.0 mg/kg/injection, schedule: Q01DX005 (ip), vehicle: Klucel (hydroxypropylcellulose) (HPC)
[10] = dose: 100.0 mg/kg/injection, schedule: Q01DX005 (ip), vehicle: Klucel (hydroxypropylcellulose) (HPC)
[11] = dose: 200.0 mg/kg/injection, schedule: Q01DX005 (ip), vehicle: Klucel (hydroxypropylcellulose) (HPC)
[12] = dose: 400.0 mg/kg/injection, schedule: Q04DX002 (ip), vehicle: saline with Tween-80
[13] = dose: 50.0 mg/kg/injection, schedule: Q01DX005 (ip), vehicle: saline
[14] = dose: 100.0 mg/kg/injection, schedule: Q01DX005 (ip), vehicle: saline
[15] = dose: 200.0 mg/kg/injection, schedule: Q01DX005 (ip), vehicle: saline

Measured: T/C

CSC(=CC(=O)c1ccccc1)SC
inactive: [1] 104 % of control | [2] 105 % of control | dose: 50.0 mg/kg/injection, schedule: Q01DX009 (ip), vehicle: saline with Tween-80 114 % of control | [3] 110 % of control

N#CC(C#N)=Cc1ccc(N2CCOCC2)cc1
inactive: dose: 50.0 mg/kg/injection, schedule: Q01DX009 (ip), vehicle: saline 90 % of control | dose: 100.0 mg/kg/injection, schedule: Q01DX009 (ip), vehicle: saline 97 % of control | dose: 200.0 mg/kg/injection, schedule: Q01DX009 (ip), vehicle: saline 90 % of control

CN(N=C1C(N)=NN=C1N)c1ccccc1
inactive: dose: 50.0 mg/kg/injection, schedule: Q04DX002 (ip), vehicle: saline with Tween-80 106 % of control | [4] 93 % of control | [5] 100 % of control

CN(C)c1ccc(N=NN=c2n(C)c3ccccc3n2C)c(Cl)c1
inactive: dose: 6.25 mg/kg/injection, schedule: Q01DX005 (ip), vehicle: saline with Tween-80 103 % of control | dose: 12.5 mg/kg/injection, schedule: Q01DX005 (ip), vehicle: saline with Tween-80 106 % of control and 109 % of control | dose: 25.0 mg/kg/injection, schedule: Q01DX005 (ip), vehicle: saline with Tween-80 113 % of control and 115 % of control | [6] 117 % of control

Cc1ccc(S(=O)(=O)Oc2ccc3oc4c(CO)ccc(NCCN(C)C)c4c(=O)c3c2)cc1
inactive: [6] 97 % of control | [7] 96 % of control | [8] 96 % of control

CC1(C)CC(C)(OC(=O)c2ccccc2Cl)[N+]([O-])=N1 (stereo not given) (tested in a mixture with another compound)
inactive: dose: 12.5 mg/kg/injection, schedule: Q01DX009 (ip), vehicle: other 99 % of control | dose: 25.0 mg/kg/injection, schedule: Q01DX009 (ip), vehicle: other 98 % of control | dose: 50.0 mg/kg/injection, schedule: Q01DX009 (ip), vehicle: other 93 % of control | dose: 100.0 mg/kg/injection, schedule: Q01DX009 (ip), vehicle: other 94 % of control | dose: 200.0 mg/kg/injection, schedule: Q01DX009 (ip), vehicle: other 100 % of control

CN1CCC/C1=C1/C(=O)Nc2ccc(Cl)cc21
inactive: [9] 108 % of control | [10] 107 % of control | [11] 102 % of control

CC(C)(Cc1nc2ccccc2[nH]1)Cc1nc2ccccc2[nH]1
inactive: dose: 7.5 mg/kg/injection, schedule: Q01DX005 (ip), vehicle: Klucel (hydroxypropylcellulose) (HPC) 99 % of control | dose: 15.0 mg/kg/injection, schedule: Q01DX005 (ip), vehicle: Klucel (hydroxypropylcellulose) (HPC) 94 % of control | dose: 30.0 mg/kg/injection, schedule: Q01DX005 (ip), vehicle: Klucel (hydroxypropylcellulose) (HPC) 91 % of control | dose: 60.0 mg/kg/injection, schedule: Q01DX005 (ip), vehicle: Klucel (hydroxypropylcellulose) (HPC) 90 % of control

Cc1cc(=O)[nH]c2c1C(=O)c1c(C)cc(=O)n(C)c1C2=O
inactive: dose: 0.5 mg/kg/injection, schedule: Q01DX009 (ip), vehicle: DMSO 99 % of control and 97 % of control | dose: 1.0 mg/kg/injection, schedule: Q01DX009 (ip), vehicle: DMSO 90 % of control | dose: 2.0 mg/kg/injection, schedule: Q01DX009 (ip), vehicle: DMSO 91 % of control | dose: 4.0 mg/kg/injection, schedule: Q01DX009 (ip), vehicle: DMSO 108 % of control

CC(C)C(NC(=O)C1(NC(=O)OCc2ccccc2)CCCC1)C(=O)O (stereo not given) (Cbz-[Ac5c]-[ξV]-OH)
inactive: [6] 99 % of control | [7] 96 % of control | [8] 99 % of control

Cn1c2ccccc2c2nnc(N/N=C/c3ccncc3)nc21
inactive: [4] 88 % of control | [5] 88 % of control | [12] 99 % of control and 100 % of control

Cc1ccc(S(=O)(=O)NC2CC3(C)CCC2C3(C)C)cc1 (stereo not given)
inactive: [9] 94 % of control | [10] 97 % of control | [11] 87 % of control

CCOP(=O)(Nc1ccc(C)cc1)OCC
inactive: dose: 100.0 mg/kg/injection, schedule: Q01DX001 (ip), vehicle: saline 104 % of control | dose: 200.0 mg/kg/injection, schedule: Q01DX001 (ip), vehicle: saline 109 % of control | dose: 400.0 mg/kg/injection, schedule: Q01DX001 (ip), vehicle: saline 105 % of control

CC(O)C(NC(=O)c1cnc(OCc2ccccc2)nc1N)C(=O)O (stereo not given)
inactive: dose: 6.25 mg/kg/injection, schedule: Q01DX009 (ip), vehicle: saline with Tween-80 100 % of control | [1] 100 % of control | [2] 90 % of control

CC(C)(C)C1CO1 (stereo not given)
inactive: [13] 103 % of control | [14] 108 % of control | [15] 110 % of control

c1ccc(CON(CCc2ccncc2)CCc2ccncc2)cc1
inactive: [13] 97 % of control | [14] 103 % of control | [15] 101 % of control

COC(=O)C1CCC2c3ccccc3C(C1)c1ccccc12 (stereo not given)
inactive: [3] 90 % of control | dose: 100.0 mg/kg/injection, schedule: Q04DX003 (ip), vehicle: saline with Tween-80 90 % of control | dose: 200.0 mg/kg/injection, schedule: Q01DX009 (ip), vehicle: saline with Tween-80 118 % of control | dose: 200.0 mg/kg/injection, schedule: Q04DX003 (ip), vehicle: saline with Tween-80 100 % of control | dose: 400.0 mg/kg/injection, schedule: Q01DX009 (ip), vehicle: saline with Tween-80 118 % of control | dose: 400.0 mg/kg/injection, schedule: Q04DX003 (ip), vehicle: saline with Tween-80 100 % of control

CC(O)c1nc2ccccc2nc1C(=O)Nc1ccccc1N (stereo not given)
inactive: [6] 101 % of control | [7] 88 % of control | [8] 92 % of control

COc1ccc(CCNC(=O)CC2CC(=O)N(CCc3ccc(OC)c(OC)c3)C(=O)C2)cc1OC
inactive: [9] 101 % of control | [10] 98 % of control | [11] 101 % of control

CCOc1ccc(N=Nc2c(O)n(-c3ccc(Br)cc3)c(=S)n(-c3ccc(OC)cc3)c2=O)cc1
inactive: [4] 91 % of control | [5] 91 % of control | [12] 94 % of control

NCC1OC(n2cnc3c(N)ncnc32)C(O)C1O (stereo not given)
inactive: dose: 6.25 mg/kg/injection, schedule: Q01DX009 (ip), vehicle: water 100 % of control | dose: 12.5 mg/kg/injection, schedule: Q01DX009 (ip), vehicle: water 100 % of control | dose: 25.0 mg/kg/injection, schedule: Q01DX009 (ip), vehicle: water 98 % of control | dose: 50.0 mg/kg/injection, schedule: Q01DX009 (ip), vehicle: water 107 % of control | dose: 100.0 mg/kg/injection, schedule: Q01DX009 (ip), vehicle: water 117 % of control

CCCOC(=O)NC(C)C(=O)NC(CCC(=O)NC(CCCC(N)C(=O)O)C(=O)NC(C)C(=O)O)C(=O)O (stereo not given)
inactive: dose: 1.56 mg/kg/injection, schedule: Q01DX005 (ip), vehicle: Klucel (hydroxypropylcellulose) (HPC) 100 % of control | dose: 3.12 mg/kg/injection, schedule: Q01DX005 (ip), vehicle: Klucel (hydroxypropylcellulose) (HPC) 103 % of control | dose: 6.25 mg/kg/injection, schedule: Q01DX005 (ip), vehicle: Klucel (hydroxypropylcellulose) (HPC) 100 % of control | dose: 12.5 mg/kg/injection, schedule: Q01DX005 (ip), vehicle: Klucel (hydroxypropylcellulose) (HPC) 95 % of control and 96 % of control | dose: 25.0 mg/kg/injection, schedule: Q01DX005 (ip), vehicle: Klucel (hydroxypropylcellulose) (HPC) 86 % of control | [9] 100 % of control
